Test results: the CheMixHub viscosity set

Test: xn = mol fraction of the nth substance listed

CCCCCCCCCCCCCCCC + CCCCCC
Conditions	viscosity [mPa·s]
298.09 K, 100 kPa, x1 = 0.8	2.236
298.12 K, 100 kPa, x1 = 0.4	0.991
298.15 K, 100 kPa, x1 = 0.6	1.518
298.15 K, 101 kPa, x1 = 0.1995	0.6062
298.15 K, 101 kPa, x1 = 0.3978	1.017
298.15 K, 101 kPa, x1 = 0.5746	1.453
298.15 K, 101 kPa, x1 = 0.8011	2.209
298.15 K, 101.33 kPa, x2 = 0.1046	2.659
298.15 K, 101.33 kPa, x2 = 0.1966	2.25
298.15 K, 101.33 kPa, x2 = 0.3	1.88
298.15 K, 101.33 kPa, x2 = 0.4037	1.547
298.15 K, 101.33 kPa, x2 = 0.5142	1.214
298.15 K, 101.33 kPa, x2 = 0.6072	0.987
298.15 K, 101.33 kPa, x2 = 0.7062	0.7626
298.15 K, 101.33 kPa, x2 = 0.8048	0.58
298.15 K, 101.33 kPa, x2 = 0.9026	0.4277
298.19 K, 101 kPa, x2 = 0.1987	2.235
298.19 K, 101 kPa, x2 = 0.3772	1.607
298.19 K, 101 kPa, x2 = 0.5983	1.001
298.19 K, 101 kPa, x2 = 0.7982	0.5933
298.22 K, 100 kPa, x1 = 0.2	0.584
318.26 K, 101 kPa, x2 = 0.1976	1.534
318.26 K, 101 kPa, x2 = 0.3758	1.155
318.26 K, 101 kPa, x2 = 0.5971	0.7591
318.26 K, 101 kPa, x2 = 0.7975	0.4712
323.13 K, 100 kPa, x1 = 0.6	1.028

ClC(Cl)Cl + CCCCCC
viscosity [mPa·s], 101 kPa
Conditions	x2 = 0.098	x2 = 0.202	x2 = 0.2873	x2 = 0.4056	x2 = 0.5009	x2 = 0.5885	x2 = 0.7253	x2 = 0.8116	x2 = 0.9008
293.15 K	0.5269	0.4839	0.4558	0.42	0.3965	0.3762	0.3509	0.3368	0.3242
298.15 K	0.5028	0.4606	0.434	0.3996	0.3781	0.3582	0.3341	0.3206	0.309
303.15 K	0.4779	0.4396	0.4142	0.3811	0.3628	0.3413	0.3186	0.3056	0.2945
313.15 K	0.4362	0.3998	0.3783	0.3472	0.3308	0.311	0.2912	0.2786	0.2683

CCCCCCCCCCCCCCCC + CCCCCCC
Conditions	viscosity [mPa·s]
293.17 K, 101 kPa, x1 = 0.097	0.553
293.17 K, 101 kPa, x1 = 0.195	0.73
293.17 K, 101 kPa, x1 = 0.492	1.475
293.17 K, 101 kPa, x1 = 0.785	2.597
298 K, 101 kPa, x2 = 0.5	1.377
298.15 K, 101 kPa, x1 = 0.211	0.7064
298.15 K, 101 kPa, x1 = 0.4067	1.102
298.15 K, 101 kPa, x1 = 0.5795	1.552
298.15 K, 101 kPa, x1 = 0.7867	2.202
298.15 K, 101.33 kPa, x2 = 0.1067	2.618
298.15 K, 101.33 kPa, x2 = 0.1981	2.268
298.15 K, 101.33 kPa, x2 = 0.3001	1.922
298.15 K, 101.33 kPa, x2 = 0.4055	1.603
298.15 K, 101.33 kPa, x2 = 0.5077	1.307
298.15 K, 101.33 kPa, x2 = 0.607	1.08
298.15 K, 101.33 kPa, x2 = 0.7086	0.8554
298.15 K, 101.33 kPa, x2 = 0.8028	0.68
298.15 K, 101.33 kPa, x2 = 0.9019	0.5217
303.15 K, 101 kPa, x1 = 0.097	0.485
303.15 K, 101 kPa, x1 = 0.195	0.632
303.15 K, 101 kPa, x1 = 0.492	1.233
303.15 K, 101 kPa, x1 = 0.785	2.079
318 K, 101 kPa, x2 = 0.5	1.005

CCCCCCCCCCCCCCCC + CCCCCCCC
Conditions	viscosity [mPa·s]
298.15 K, 101.33 kPa, x2 = 0.1039	2.656
298.15 K, 101.33 kPa, x2 = 0.2122	2.305
298.15 K, 101.33 kPa, x2 = 0.3109	1.973
298.15 K, 101.33 kPa, x2 = 0.4114	1.682
298.15 K, 101.33 kPa, x2 = 0.5033	1.452
298.15 K, 101.33 kPa, x2 = 0.6068	1.205
298.15 K, 101.33 kPa, x2 = 0.7096	0.982
298.15 K, 101.33 kPa, x2 = 0.8067	0.7957
298.15 K, 101.33 kPa, x2 = 0.9049	0.6421
318.16 K, 101 kPa, x1 = 0.15	0.5758
318.16 K, 101 kPa, x1 = 0.3499	0.8378
318.16 K, 101 kPa, x1 = 0.5001	1.073
318.16 K, 101 kPa, x1 = 0.6398	1.317
318.16 K, 101 kPa, x1 = 0.7996	1.627

CCCCCCCCCCCCCCCC + CCCCCCCCCC
Conditions	viscosity [mPa·s]
298.15 K, 101.33 kPa, x2 = 0.1051	2.749
298.15 K, 101.33 kPa, x2 = 0.2075	2.481
298.15 K, 101.33 kPa, x2 = 0.3045	2.2
298.15 K, 101.33 kPa, x2 = 0.4045	1.976
298.15 K, 101.33 kPa, x2 = 0.5081	1.733
298.15 K, 101.33 kPa, x2 = 0.6095	1.53
298.15 K, 101.33 kPa, x2 = 0.7051	1.336
298.15 K, 101.33 kPa, x2 = 0.8037	1.17
298.15 K, 101.33 kPa, x2 = 0.9041	0.9885
313.15 K, 100 kPa, x2 = 0.35	1.6
313.15 K, 100 kPa, x2 = 0.61	1.18
313.15 K, 100 kPa, x2 = 0.83	0.9

CCCCCCCCCC(=O)OC + CCCCCCCCCCC
viscosity [mPa·s], 100 kPa
Conditions	x2 = 0.0986	x2 = 0.1998	x2 = 0.2992	x2 = 0.3988	x2 = 0.4974	x2 = 0.5994	x2 = 0.6999	x2 = 0.7993	x2 = 0.899
293.15 K	1.97	1.831	1.717	1.611	1.516	1.425	1.342	1.272	1.219
298.15 K	1.783	1.662	1.559	1.468	1.386	1.306	1.234	1.169	1.124
303.15 K	1.625	1.517	1.427	1.344	1.268	1.198	1.137	1.08	1.039
308.15 K	1.487	1.392	1.311	1.237	1.171	1.109	1.053	1.002	0.964
313.15 K	1.368	1.283	1.211	1.145	1.083	1.029	0.978	0.932	0.897
318.15 K	1.264	1.187	1.122	1.062	1.007	0.958	0.912	0.871	0.838
323.15 K	1.172	1.102	1.044	0.99	0.939	0.894	0.853	0.815	0.786

CCCCCCCCCCCCCCCC + CCCCCCCCCCCC
298.15 K, 101.33 kPa
Conditions	viscosity [mPa·s]
x2 = 0.1077	2.821
x2 = 0.2113	2.643
x2 = 0.3061	2.467
x2 = 0.4097	2.281
x2 = 0.5073	2.102
x2 = 0.6082	1.936
x2 = 0.7053	1.767
x2 = 0.8045	1.636
x2 = 0.905	1.476

ClC(Cl)Cl + CCCCCCCCCCO
viscosity [mPa·s], 101 kPa
Conditions	303.15 K	313.15 K
x1 = 0.0523	8.774	6.174
x1 = 0.1025	7.938	5.59
x1 = 0.1519	7.108	5.068
x1 = 0.1992	6.311	4.603
x1 = 0.2501	5.65	4.121
x1 = 0.2992	5.021	3.726
x1 = 0.3497	4.374	3.291
x1 = 0.4005	3.838	2.935
x1 = 0.451	3.293	2.571
x1 = 0.5	2.873	2.259
x1 = 0.5504	2.439	1.974
x1 = 0.5991	2.098	1.697
x1 = 0.6496	1.778	1.48
x1 = 0.699	1.501	1.251
x1 = 0.7508	1.277	1.076
x1 = 0.799	1.052	0.911
x1 = 0.8513	0.916	0.77
x1 = 0.8999	0.784	0.661
x1 = 0.9501	0.651	0.561

ClC(Cl)Cl + CCCCCCCCO
viscosity [mPa·s], 101 kPa
Conditions	303.15 K	313.15 K
x1 = 0.0471	5.924	4.259
x1 = 0.0996	5.36	3.883
x1 = 0.149	4.852	3.545
x1 = 0.1997	4.346	3.212
x1 = 0.2493	3.898	2.902
x1 = 0.3001	3.475	2.593
x1 = 0.3529	3.039	2.315
x1 = 0.4037	2.666	2.07
x1 = 0.4548	2.332	1.823
x1 = 0.5001	2.062	1.648
x1 = 0.555	1.772	1.426
x1 = 0.5995	1.552	1.273
x1 = 0.6467	1.37	1.134
x1 = 0.7001	1.171	0.987
x1 = 0.7484	1.036	0.883
x1 = 0.7997	0.929	0.769
x1 = 0.8451	0.804	0.704
x1 = 0.9007	0.693	0.627
x1 = 0.9494	0.616	0.555

CC(=O)OCc1ccccc1 + CCCCCO
viscosity [mPa·s], 101.33 kPa
Conditions	x1 = 0.1074	x1 = 0.2083	x1 = 0.2988	x1 = 0.4051	x1 = 0.5012	x1 = 0.6057	x1 = 0.7115	x1 = 0.8097	x1 = 0.9004
293.15 K	3.865	3.649	3.465	3.261	3.087	2.909	2.738	2.589	2.459
303.15 K	2.789	2.661	2.551	2.427	2.321	2.21	2.103	2.009	1.926
313.15 K	2.194	2.1	2.018	1.927	1.848	1.766	1.686	1.616	1.553
323.15 K	1.296	1.288	1.281	1.274	1.266	1.259	1.251	1.244	1.237

CCCCCCCCCC(=O)OC + CCCCCO
viscosity [mPa·s], 100 kPa
Conditions	x1 = 0.1	x1 = 0.2	x1 = 0.3	x1 = 0.4	x1 = 0.5	x1 = 0.6	x1 = 0.7	x1 = 0.8001	x1 = 0.9001
298.15 K	2.764	2.385	2.169	2.028	1.946	1.892	1.866	1.859	1.875
303.15 K	2.451	2.119	1.938	1.825	1.754	1.706	1.689	1.686	1.712
308.15 K	2.158	1.892	1.741	1.646	1.588	1.549	1.535	1.536	1.555
313.15 K	1.918	1.697	1.571	1.49	1.444	1.413	1.402	1.407	1.426
318.15 K	1.713	1.529	1.423	1.358	1.32	1.293	1.288	1.292	1.312
323.15 K	1.535	1.387	1.294	1.239	1.211	1.189	1.186	1.194	1.212
